Experimental findings from article PMC11767423, “Design, Synthesis, and Antioxidant and Anti-Tyrosinase Activities of (Z)-5-Benzylidene-2-(naphthalen-1-ylamino)thiazol-4(5H)-one Analogs: In Vitro and In Vivo Insights” (Molecules, 2025) are described below.

Molecules are shown by their SMILES.

Series [1] is described as follows: Assay for DPPH radical scavenging. As to conditions: 500 μM; 30 min in the dark. Here is the method:
To evaluate the DPPH radical-scavenging efficacy of 1–15, a DPPH methanol solution was mixed with compounds 1–15, and the mixture was left in the dark. After 30 min, the radical-scavenging efficacy of each compound was determined by measuring the optical density at 517 nm. Vitamin C (L-ascorbic acid) was used for comparing radical-scavenging activity, and all test samples were treated at 500 μM.
DPPH was dissolved in methanol to prepare a 0.2 mM solution, and test samples (vitamin C [L-ascorbic acid, LA; positive control] and 1–15) were dissolved in DMSO to prepare a 5 mM solution. The DPPH methanolic solution (180 μL) was added to the test sample DMSO solution (20 μL) in each well of a 96-well microplate and kept in a place without light for 30 min at 22 °C. Using a VersaMax™ ELISA reader, the optical density of each well was recorded at 517 nm to determine DPPH radical-scavenging activity.
(Loss of DPPH colour is used to gauge radical scavenging.)

A further series deals with mushroom tyrosinase (Agaricus bisporus, UniProt C7FF04). Description: Kinetic experiment using mushroom tyrosinase (Lineweaver–Burk and Dixon plots). It is filed as biochemical. The method, then:
The plots for inhibitors 10 and 15 were obtained by measuring the initial rate of dopachrome production in the presence of various L-DOPA substrate concentrations (Figure 3A,C). For the kinetic experiments, compounds 10 and 15 were used at 0, 1, 2, and 4 μM and at 0, 4, 8, and 16 μM, respectively.
Ki, known as the dissociation constant or inhibition constant, describes the binding affinity between the enzyme and inhibitor. […] Dixon plots were acquired by plotting the inverse of the initial dopachrome formation rate against the inhibitor concentration (Figure 3B,D). Each Dixon plot produces four lines that merge at one point in the second quadrant. The absolute value of the x co-ordinate of the merge point represents the Ki value. […] The lower the Ki value, the stronger the binding affinity. Thus, compound 10 bound more strongly to the tyrosinase active site than compound 15.
The identification of the tyrosinase inhibition mechanism was carried out by kinetic studies using mushroom tyrosinase. Test samples (10 μL; compounds 10 and 15) were mixed with a mushroom tyrosinase aqueous solution (20 μL; 100 units/mL) and a substrate solution (170 μL; substrate [L-DOPA] and 17.2 mM sodium phosphate pH 6.5 buffer) in each well of 96-well microplate. To obtain Lineweaver–Burk plots for kinetic analysis, L-DOPA and test samples were used at various concentrations: 0, 1, 2, and 4 μM for 10; 0, 4, 8, and 16 μM for 15; and 1, 2, 4, 8, and 16 mM for L-DOPA. During a 30 min incubation period, the initial dopachrome formation rate was calculated by measuring the optical density at 475 nm at 5 min intervals using an ELISA reader. Lineweaver–Burk plots were prepared by plotting the inverse of the substrate concentration against the inverse of the initial dopachrome formation rate in the presence of four different concentrations of compounds 10 and 15.

Series [2] has as its system B16F10 cells. Description: In situ cellular tyrosinase activity assay (L-DOPA staining). As to conditions: α-MSH + IBMX, 72 h, then L-DOPA 2 h. It is filed as cell-based. Here is the method:
The effect of 10 on cellular tyrosinase activity was investigated in situ using L-DOPA and B16F10 cells. This experimental method allows for the direct observation of cellular melanin production. […] After 72 h of incubation, the cells were treated with L-DOPA for 2 h to induce melanin production.
A 24-well plate containing 1 × 10^3 B16F10 cells per well was incubated at 37 °C for 24 h. […] After incubation for 72 h, the cells were fixed for 50 min using paraformaldehyde (4%), rinsed twice with PBS, and permeabilized for 2 min using Triton X-100 (0.1%). The cells were washed with PBS and 500 μL of 2 mM L-DOPA solution was added. After the cells were incubated at 37 °C for 2 h, stained images were obtained using a camera connected to a microscope (Motic, Hong Kong, China).

The test system of series [3] is B16F10 cellular tyrosinase. The experiment in a line: Cellular tyrosinase activity assay in B16F10 cells. It is filed as cell-based. As to conditions: α-MSH + IBMX, 72 h. Here is the method: We analyzed the effect of 10 on B16F10 cellular tyrosinase activity to determine whether the ability of 10 inhibiting melanogenesis results from its ability to inhibit cellular tyrosinase activity.
A 6-well microplate containing 5 × 10^3 B16F10 cells per well was incubated at 37 °C for 24 h. Compound 10 was added to each well at 5, 10, and 20 μM and incubated for 1 h, and then stimulators (1 μM α-MSH and 200 μM IBMX) were added to each well before 72 h incubation.
To measure the cellular tyrosinase activity, the cells incubated for 72 h were washed 2 times with PBS, exposed to a 100 μL lysis buffer solution containing 5 μL 2 mM phenylmethylsulfonyl fluoride, 5 μL 20% Triton X-100, and 90 μL 50 mM phosphate buffer (pH 6.5), and cultivated for 30 min at −80 °C. After the lysates were centrifuged at 4 °C for 10 min at 10,000× g, an aliquot (80 μL) of the supernatants was added to each well of a 96-well microplate containing 20 μL of 10 mM L-DOPA. Data for the optical density at 475 nm were obtained every 1 min for 10 min at 37 °C using an ELISA reader to determine cellular tyrosinase activity.

Series [4] concerns B16F10 cells. The experiment in a line: Melanin content assay in B16F10 cells. It is filed as cell-based. As to conditions: α-MSH + IBMX, 72 h. Here is the method: After 72 h, the effect of compound 10 on melanin biosynthesis was determined. A 6-well microplate containing 5 × 10^3 B16F10 cells per well was incubated at 37 °C for 24 h. Compound 10 was added to each well at 5, 10, and 20 μM and incubated for 1 h, and then stimulators (1 μM α-MSH and 200 μM IBMX) were added to each well before 72 h incubation. […] For the melanin content quantification, the cells were lysed at 60 °C for 1 h in 100 μL 1N-NaOH solution containing 10% DMSO after washing 2 times with phosphate-buffered saline (PBS). The cell lysates were transferred to a 96-well microplate and the optical density was measured at 405 nm using an ELISA reader to calculate the melanin content in each well.

Series [5] deals with B16F10 cells. Description: Cell viability on B16F10 cells (EZ-Cytox). The series is classed as cell-based. As to conditions: 1, 2, 5, 10 and 20 μM; 72 h. Here is the method:
Therefore, we investigated whether these compounds exert tyrosinase inhibitory activity in B16F10 mammalian cells. We examined the effects of these compounds on B16F10 cell viability. Cell viability was assessed for 72 h at five concentrations (1, 2, 5, 10, and 20 μM) of compounds 10 and 15.
The viability of B16F10 cells in the presence of compounds 10 and 15 was assayed. A 96-well microplate containing 1 × 10^3 B16F10 cells per well was incubated at 37 °C in a humid environment containing 5% CO2 for 24 h. Test samples (10 and 15) were added to each well at concentrations of 0, 1, 2, 5, 10, and 20 μM and incubated for 72 h. Each well was exposed to a 10 μL EZ-Cytox solution (EZ-500®, DoGenBio, Seoul, Republic of Korea) and incubated for 2 h. To determine cell viability, well optical density was measured at 450 nm using an ELISA reader.

The nature of series [6]: Assay for ABTS+ radical scavenging. As to conditions: 100 μM. Here is the method:
The ABTS^+-scavenging efficacy of compounds 1–15 was determined by oxidizing ABTS with K2S2O8 to prepare ABTS^+. The prepared ABTS^+ solution was mixed with the test samples (1–15 and Trolox, a positive control) and the radical-scavenging efficacy of the test samples was explored by measuring the decrease in optical density at 732 nm. All test samples were tested at 100 μM.
To acquire ABTS^+ radicals, ABTS (14 mM in 20 mL H2O) was mixed with K2S2O8 (4.9 mM in 20 mL H2O), an oxidant agent, and stored at 22 °C in a place without light for 15 h. The absorbance of the prepared ABTS^+ radical solution was adjusted to 0.70 ± 0.01 at 732 nm by adding methanol. Test samples (Trolox [positive control] and 1–15) were dissolved in a co-solvent (DMSO:EtOH = 1:10 [v/v]). The diluted ABTS^+ radical solution (90 μL) was added to the test sample solution (10 μL) in each well of a 96-well plate and held at 22 °C in the dark for 2 min. The optical density of each well was recorded at 732 nm every 1 min for 10 min using an ELISA reader. The final concentration of test samples was 100 μM. %Radical-scavenging activity was determined using the formula 100 × [(Abscon − Abssam)/Abscon], where Abscon and Abssam represent the optical densities of the control and the samples, respectively.

mushroom tyrosinase, sequence (C7FF04 1-392): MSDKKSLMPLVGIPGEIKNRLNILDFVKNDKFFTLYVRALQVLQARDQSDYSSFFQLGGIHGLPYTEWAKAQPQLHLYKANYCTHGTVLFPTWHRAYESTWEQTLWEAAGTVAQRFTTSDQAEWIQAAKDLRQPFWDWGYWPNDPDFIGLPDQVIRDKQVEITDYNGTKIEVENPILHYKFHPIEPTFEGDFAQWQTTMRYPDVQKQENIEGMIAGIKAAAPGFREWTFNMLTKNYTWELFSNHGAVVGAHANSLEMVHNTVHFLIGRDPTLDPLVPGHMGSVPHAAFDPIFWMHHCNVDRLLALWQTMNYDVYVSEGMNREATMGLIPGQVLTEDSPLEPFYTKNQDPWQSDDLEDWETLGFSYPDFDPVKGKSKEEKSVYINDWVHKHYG

In turn, `COc1cc(/C=C2\SC(Nc3cccc4ccccc34)=NC2=O)ccc1O` [Compound 5, (Z)-5-(4-Hydroxy-3-methoxybenzylidene)-2-(naphthalen-1-ylamino)thiazol-4(5H)-one] came in with a DPPH radical scavenging in series [1] of 62%.

Turning to `COc1ccc(/C=C2\SC(Nc3cccc4ccccc34)=NC2=O)cc1O` [Compound 6, (Z)-5-(3-Hydroxy-4-methoxybenzylidene)-2-(naphthalen-1-ylamino)thiazol-4(5H)-one], the DPPH radical scavenging in series [1] amounted to 21%.

In the case of `CCOc1cc(/C=C2\SC(Nc3cccc4ccccc34)=NC2=O)ccc1O` [Compound 7, (Z)-5-(3-Ethoxy-4-hydroxybenzylidene)-2-(naphthalen-1-ylamino)thiazol-4(5H)-one], the DPPH radical scavenging in series [1] is given as 61%.

In the case of `O=C1N=C(Nc2cccc3ccccc23)S/C1=C\c1ccc(O)cc1O` [Compound 10, (Z)-5-(2,4-Dihydroxybenzylidene)-2-(naphthalen-1-ylamino)thiazol-4(5H)-one], the affinity at mushroom tyrosinase (Dixon plots, substrate L-DOPA), expressed as Ki, was 2040 nM. For the same compound, the inhibition mechanism entry at mushroom tyrosinase (Lineweaver–Burk plots, L-DOPA 1–16 mM) is “compete with the substrates for binding to the active site of tyrosinase”. In addition, the “in situ melanin formation (L-DOPA staining)” value with B16F10 cells [2] (20 μM) is “reduced melanin formation to the level of the untreated control”; in the series with B16F10 cells [2] (5, 10 and 20 μM), “dose-dependently decreased melanin formation”. The cellular tyrosinase activity result in series [3] (10 μM) was “slightly more potent tyrosinase inhibitory potency than kojic acid at 20 μM”; in series [3] (20 μM) it was “reduced cellular tyrosinase activity to almost the level of cellular tyrosinase activity in the untreated control”; in series [3] (5, 10 and 20 μM) it was “dose-dependent decrease in cellular tyrosinase activity”. Further, the stimulator-induced melanin content result in the series on B16F10 cells [4] (5 μM, kojic acid at 20 μM) was “reduced the stimulator-induced melanin content levels similarly to kojic acid”; with B16F10 cells [4] (5, 10 and 20 μM) it was “strongly reduced stimulator-induced melanin content dose-dependently”. Besides, the melanin content level in the series with B16F10 cells [4] (20 μM, controls 100%) was determined as 86%. In addition, the B16F10 cell viability result in the series with B16F10 cells [5] was “no perceptible effect on B16F10 cell viability”. Moreover, the “ABTS+ scavenging” value in series [6] turned out to be 97%. The compound further gave a DPPH radical scavenging in series [1] of 51%.

As to `COc1cc(/C=C2\SC(Nc3cccc4ccccc34)=NC2=O)cc(OC)c1O` [Compound 13, (Z)-5-(4-Hydroxy-3,5-dimethoxybenzylidene)-2-(naphthalen-1-ylamino)thiazol-4(5H)-one], the “ABTS+ scavenging” value in series [6] came to 97%. For the same compound, the DPPH radical scavenging in series [1] was found to be 51%.

Regarding `CC(C)(C)c1cc(/C=C2\SC(Nc3cccc4ccccc34)=NC2=O)cc(C(C)(C)C)c1O` [Compound 14, (Z)-5-(3,5-Di-tert-butyl-4-hydroxybenzylidene)-2-(naphthalen-1-ylamino)thiazol-4(5H)-one], the “ABTS+ scavenging” value in series [6] amounted to 95%. In addition, the DPPH radical scavenging in series [1] came to 68%.

`O=C1O[C@H]([C@@H](O)CO)C(O)=C1O` [Vitamin C, L-ascorbic acid, reference compound] registered a DPPH radical scavenging in series [1] of 90%.
